# Measured values published in patent publication US10357533B2, “Drug for the effective control of acute and or chronic pain and a method for its administration” (PVP LABS PTE. LTD., priority 2016, dated 2019).
# Where a SMILES comes first, the peptide text is derived from it. [ ]: non-standard residue; d: D form.
# Assays:
# Type in all cases: in vivo
# mice [1] = assay: Tail flick test in mice, dose-dependent analgesic effect
# Method: This stage involved selecting the effective doses of peptide compound in the tail flick test in mice after a single subcutaneous administration of the substance at doses of 0.01, 0.05, 0.1, 0.5, 0.7, 1 and 5 mg/kg. Tail flick method is based on a spinal flexion reflex in response to a progressively increasing effect of thermal radiation on the surface of skin. A pain stimulus was applied to the tail locally, by the action of thermal radiation, using a TSE Systems analgesiometer (Germany). Stimulus intensity was set, corresponding to an increase in temperature from 30° C. to 60° C. over 13 seconds. The tail flick latency (TFL) of 13 seconds was used as the maximum allowable time of stimulation. The mice in test groups were given peptide compound, and control group mice were given the solvent (water for injections) by subcutaneous. Tail flick latency was evaluated 40 minutes after the administration of the study substance or solvent. The analysis of experimental results involved calculating the maximum possible effect (MPE).
# rats = assay: Hot plate test in rats; conditions: for HPL, s (Mean ± SEM): hot plate 52° C.
# Method: The “Hot Plate” test is based on the reflex that rat licking its' feet when the animal comes in contact with a hot surface. The device is a metal surface with a diameter of 30 cm whose temperature is controlled by software. The site is enclosed by a transparent fence with a height of 40 cm. The temperature of the metal pad was set at exactly 52° C. When placing the animal on the surface, you measure the time until the moment when the animal licks its' foot. When analgesics are administered, the time before the rat licks its' feet increases. The licking latency (HPL) of 40 seconds was used as the maximum allowable time of stimulation. The study was conducted on male rats weighing 160-180 g, 6 animals per dose.
# mice [2] = assay: Acetic acid-induced writhing test in mice; conditions: for Number of writhings, n (Mean ± SEM): 15 minutes count
# Method: The acetic acid-induced writhing test is a model of a chemical nociceptive stimulus applied by the intraperitoneal injection of acetic acid solution.
# Intraperitoneal injection of substances that irritate serous membranes in mice induces distinctive movements, including contractions of abdominal muscles followed by muscle relaxation, extension of the hind limbs and curving of the back, known as writhing. Mice were given an intraperitoneal injection of 1% acetic acid at a dose of 0.1 mL per 10 g body weight. After the injection the mice were placed in transparent acrylic chambers and counted the number of writhings in each animal for the next 15 minutes. The analgesic effect was evaluated by a reduction in the number of writhings in mice that received the study drug relative to the control group. […] Writhing onset latency in mice was used as an additional parameter for evaluating the efficacy of the substance in the acetic acid-induced writhing test.
# mice [3] = assay: Antinociceptive tolerance and withdrawal syndrome, tail flick test in mice; conditions: for TFL, s, Baseline values (Mean ± SEM): before administering
# Method: The tail flick test was the main method of evaluating peptide compound antinociceptive tolerance and withdrawal syndrome. The test involved evaluating tail flick latency (TFLtest). Baseline tail flick latency TFLbase was evaluated before administering the substances. The test was performed in outbred male mice.
# The animals were randomized into 4 groups of 10 animals in each group: Group 1: control—the animals were administered subcutaneous injections of water for injections for 14 days; Group 2: single peptide compound administration group—the animals were administered water for injections for 13 days and peptide compound at a dose of 0.5 mg/kg on day 14 by subcutaneous injection; Group 3: chronic peptide compound administration group—the animals were administered with peptide compound at a dose of 0.5 mg/kg by subcutaneous injection for 14 days; Group 4: withdrawal group—the animals were administered with peptide compound at a dose of 0.5 mg/kg by subcutaneous injection for 14 days, withdrawal test was evaluated after 48 hours.
# The last injection of the drug/water to groups 1-3 was administered 40 minutes before the test.
# mice [4] = assay: Balancing on a horizontal rod test in mice
# Method: The substance was injected intraperitoneally in identical weight amounts to laboratory animals in the experimental and control groups, respectively. […] The measurement was started 15 minutes after injection.
# Animals were placed on a wooden rod with a diameter of 2 cm and 40 cm long, at a height of not less than 60 cm. Then we recorded the duration maintenance of equilibrium on the rod. We processed the results using single factor dispersal analysis ANOVA.
# [5] = 0.05 mg/kg subcutaneous, 40 minutes
# [6] = 0.1 mg/kg subcutaneous, 40 minutes
# [7] = 0.5 mg/kg subcutaneous, 40 minutes
# [8] = 0.7 mg/kg subcutaneous, 40 minutes
# [9] = 1 mg/kg subcutaneous, 40 minutes
# [10] = 5 mg/kg subcutaneous, 40 minutes
# [11] = 0.5 mg/kg subcutaneous for 14 days, withdrawal test after 48 hours
structure (smiles),measurement,setting,value
"N=C(N)NCCC[C@@H](NC(=O)[C@@H](N)Cc1ccc(O)cc1)C(=O)N[C@@H](Cc1ccccc1)C(=O)NCC(N)=O [Peptide compound, H-Tyr-D-Arg-Phe-Gly-NH2] (H-Y[dR]FG-NH2)","Proportion of the maximum possible effect (MPE), %","mice [1]; 0.01 mg/kg subcutaneous, 40 minutes",18.7%
same,"TFL, s (Mean ± SEM)","mice [1]; 0.01 mg/kg subcutaneous, 40 minutes after administration",5.89 ± 0.19 s
same,"Proportion of the maximum possible effect (MPE), %",mice [1]; [5],42.5%
same,"TFL, s (Mean ± SEM)",mice [1]; [5],7.97 ± 0.78 s
same,"Proportion of the maximum possible effect (MPE), %",mice [1]; [6],47.0%
same,"TFL, s (Mean ± SEM)",mice [1]; [6],8.36 ± 0.68 s
same,"Proportion of the maximum possible effect (MPE), %",mice [1]; [7],55.7%
same,"TFL, s (Mean ± SEM)",mice [1]; [7],9.12 ± 0.92 s
same,"Proportion of the maximum possible effect (MPE), %",mice [1]; [8],57.5%
same,"TFL, s (Mean ± SEM)",mice [1]; [8],10.15 ± 0.74 s
same,"Proportion of the maximum possible effect (MPE), %",mice [1]; [9],94.6%
same,"TFL, s (Mean ± SEM)",mice [1]; [9],12.53 ± 0.24 s
same,"Proportion of the maximum possible effect (MPE), %",mice [1]; [10],100%
same,"TFL, s (Mean ± SEM)",mice [1]; [10],13.00 ± 0 s
same,higher level of activity in comparison with morphine,mice [1]; tail flick,10-15 times
same,dose of morphine with close activity,"mice [1]; tail flick, peptide compound 0.1 mg/kg dose",~4 mg/kg
same,dose of morphine with close activity,"mice [1]; tail flick, peptide compound 0.5 mg/kg dose",7 to 8 mg/kg
same,dose at which the effect of full analgesia was observed,"mice [1]; tail flick, subcutaneous",1 mg/kg
same,"Proportion of the maximum possible effect (MPE), %",rats; 0.1 mg/kg subcutaneous,38.2%
same,"HPL, s (Mean ± SEM)",rats; 0.1 mg/kg subcutaneous,26.01 ± 8.8 s
same,"Proportion of the maximum possible effect (MPE), %",rats; 5 mg/kg subcutaneous,98.3%
same,"HPL, s (Mean ± SEM)",rats; 5 mg/kg subcutaneous,39.33 ± 1.63 s
same,dose at which the effect of full analgesia was observed,rats; hot plate,5 mg/kg
same,higher level of activity in comparison with morphine,rats; hot plate,~10 times
same,dose of morphine with corresponding analgesic efficacy,"rats; hot plate, proposed drug 0.1 mg/kg",5 mg/kg
same,"increase in writhing onset latency relative to the control group, factor",mice [2]; 0.25 mg/kg,2.6
same,"reduction of visceral pain (number of writhings) relative to the control group, factor",mice [2]; 0.25 mg/kg,2.2
same,% of mice w/o writhing,mice [2]; 0.25 mg/kg subcutaneous,0%
same,Number of mice w/o writhing/number of mice in group,mice [2]; 0.25 mg/kg subcutaneous,0/9
same,"Writhing onset latency, s (Mean ± SEM)",mice [2]; 0.25 mg/kg subcutaneous,397.2 ± 69.95 s
same,"Number of writhings, n (Mean ± SEM)",mice [2]; 0.25 mg/kg subcutaneous 40 minutes before acetic acid,40.7 ± 4.50 n
same,animals that exhibited writhing,mice [2]; 0.25 mg/kg subcutaneously,100%
same,animals in which the pain response was observed,mice [2]; 0.5 mg/kg,40.0%
same,"increase in writhing onset latency relative to the control group, factor",mice [2]; 0.5 mg/kg,4.1
same,"reduction of visceral pain (number of writhings) relative to the control group, factor",mice [2]; 0.5 mg/kg,31.8
same,% of mice w/o writhing,mice [2]; 0.5 mg/kg subcutaneous,40.0%
same,Number of mice w/o writhing/number of mice in group,mice [2]; 0.5 mg/kg subcutaneous,4/10
same,"Writhing onset latency, s (Mean ± SEM)",mice [2]; 0.5 mg/kg subcutaneous,632.5 ± 80.62 s
same,"Number of writhings, n (Mean ± SEM)",mice [2]; 0.5 mg/kg subcutaneous 40 minutes before acetic acid,2.8 ± 1.00 n
same,animals in which the pain response was observed,mice [2]; 1 mg/kg,55.6%
same,"increase in writhing onset latency relative to the control group, factor",mice [2]; 1 mg/kg,4.9
same,"reduction of visceral pain (number of writhings) relative to the control group, factor",mice [2]; 1 mg/kg,74.2
same,% of mice w/o writhing,mice [2]; 1 mg/kg subcutaneous,55.6%
same,Number of mice w/o writhing/number of mice in group,mice [2]; 1 mg/kg subcutaneous,5/9
same,"Writhing onset latency, s (Mean ± SEM)",mice [2]; 1 mg/kg subcutaneous,762.8 ± 55.76 s
same,"Number of writhings, n (Mean ± SEM)",mice [2]; 1 mg/kg subcutaneous 40 minutes before acetic acid,1.2 ± 0.49 n
same,"MPE, % (Mean ± SEM)",mice [3]; 0.5 mg/kg subcutaneous chronic dosing for 14 days,50.5 ± 13.92 %
same,"TFL, s, After dosing (Mean ± SEM)","mice [3]; 0.5 mg/kg subcutaneous chronic dosing for 14 days, 40 minutes before the test",8.6 ± 1.25 s
same,"MPE, % (Mean ± SEM)",mice [3]; [11],1.3 ± 3.72%
same,"TFL, s, After dosing (Mean ± SEM)",mice [3]; [11],4.8 ± 0.36 s
same,"MPE, % (Mean ± SEM)",mice [3]; 0.5 mg/kg subcutaneous single dose on day 14,43.3 ± 11.19 %
same,"TFL, s, After dosing (Mean ± SEM)","mice [3]; 0.5 mg/kg subcutaneous single dose on day 14, 40 minutes before the test",8.0 ± 1.03 s
same,tolerance or withdrawal syndrome,"mice [3]; 0.5 mg/kg subcutaneously, single dosing or chronic treatment",lack of tolerance or withdrawal syndrome
same,"TFL, s, Baseline values (Mean ± SEM)",mice [3]; group 0.5 mg/kg chronic dosing,4.6 ± 0.26 s
same,"TFL, s, Baseline values (Mean ± SEM)",mice [3]; group 0.5 mg/kg single dose,4.5 ± 0.36 s
same,"TFL, s, Baseline values (Mean ± SEM)",mice [3]; group 0.5 mg/kg withdrawal,4.7 ± 0.24 s
same,reduced activity in horizontal movement on the rod,mice [4]; higher doses 20-100 mg/kg,10-20%
same,"maintaining balance on a horizontal rod, experimental vs control groups",mice [4]; intraperitoneally,did not observe significant differences
